Data as given in patent US12318457B2, “Oligosaccharide linker, linker-payload comprising the same and glycan chain-remodeled antibody-drug conjugate, preparation methods and uses thereof” (GENEQUANTUM HEALTHCARE (SUZHOU) CO., LTD., priority 2022, dated 2025).
Read-outs that look alike come from different tables or passages of the source. Non-standard residues stand in square brackets, D forms with d. Residues, ends and D or L forms follow the SMILES beside them. *: point of attachment. Dolaproine = CO[C@@H]([C@@H]1CCCN1)[C@@H](C)C(=O)O; Dil = CC[C@H](C)[C@H](NC)[C@@H](CC(=O)O)OC; X1 = C[C@@H](N*)[C@@H](O)c1ccccc1; NMeV = CN[C@H](C(=O)O)C(C)C

Key:
Assay type in all cases: cell-based
[1] = system: ErbB2/HER2-positive human breast cancer cells BT-474; assay: Tumor cell proliferation inhibition (CellTiter Glo), BT-474
Method: (§1) 1) ErbB2/HER2-positive human breast cancer cells BT-474, ErbB2/HER2-positive human gastric cancer cells NCI-N87 and ErbB2/HER2-negative human liver cancer cells HepG2 were inoculated into a 96-well cell plate at 100 μL/well (1000 to 10000 cells), and incubated overnight in a cell incubator under the conditions of 37° C., 5% CO2, 95% air and 100% humidity.
(§2) 3) The cell plate was removed from the 37° C. cell incubator, and equilibrated for about 30 min to rt. 100 μL of CellTiter Glo reagent was added into each well, a shaker shook for 2 min, followed by standing in a dark place at rt for 10 min, and the relative light unit (RLU) was measured with a Cytation 3 microplate reader.

[2] = system: FaDu (human throat cancer cell); assay: Tumor cell proliferation inhibition, FaDu
Method: as §1, §2
(§3) For example, BxPC-3, FaDu, HepG2 and other human tumor cells were selected.
(§4) For example, TROP2-positive human tumor cells such as BxPC-3 (human pancreatic cancer cell) and FaDu (human throat cancer cell), and TROP2-negative tumor cells such as HepG2 (human liver cancer cell) were selected.

[3] = system: ErbB2/HER2-positive human gastric cancer cells NCI-N87; assay: Tumor cell proliferation inhibition (CellTiter Glo), NCI-N87
Method: as §1, §2

[4] = system: BxPC-3 (human pancreatic cancer cell); assay: Tumor cell proliferation inhibition, BxPC-3
Method: as §1, §2, §3, §4

[5] = system: human liver cancer cells HepG2; assay: Tumor cell proliferation inhibition (CellTiter Glo), HepG2
Method: as §1, §2, §3, §4

CC[C@H](C)[C@@H]([C@@H](CC(=O)N1CCC[C@H]1[C@H](OC)[C@@H](C)C(=O)N[C@H](C)[C@@H](O)c1ccccc1)OC)N(C)C(=O)[C@@H](NC(=O)[C@@H](NC)C(C)C)C(C)C [MMAE, monomethylauristatin E] (H-[NMeV]V[Dil][Dolaproine]-X1)
IC50 ([1]; BT-474, ErbB2/HER2-positive, 72 to 120 h, read-out: Proliferation Inhibition Effect on Tumor Cells (IC50)): 0.272 nM
maximum killing percentage relative to the control group ([1]; BT-474, control puromycin 5 μM): 86.46%
maximum killing percentage relative to the control group [2]: 90.87%
IC50 ([2]; TROP2-positive, Table 7, read-out: Proliferation Inhibition Action on Tumor Cells (IC50)): 0.167 nM
IC50 ([3]; NCI-N87, ErbB2/HER2-positive, 72 to 120 h, read-out: Proliferation Inhibition Effect on Tumor Cells (IC50)): 0.248 nM
maximum killing percentage relative to the control group ([3]; NCI-N87, control puromycin 5 μM): 90.78%
maximum killing percentage relative to the control group ([4]; BxPC-3): 99.56%
IC50 ([4]; BxPC-3, TROP2-positive, Table 7, read-out: Proliferation Inhibition Action on Tumor Cells (IC50)): 0.388 nM
IC50 ([5]; HepG2, ErbB2/HER2-negative, 72 to 120 h, read-out: Proliferation Inhibition Effect on Tumor Cells (IC50)): 0.567 nM
maximum killing percentage relative to the control group ([5]; HepG2, ErbB2/HER2-negative, control puromycin 5 μM): 74.88%
maximum killing percentage relative to the control group ([5]; HepG2, TROP2-negative): 83.43%
IC50 ([5]; HepG2, TROP2-negative, Table 7, read-out: Proliferation Inhibition Action on Tumor Cells (IC50)): 0.398 nM
